Laboratory results as given in PubChem BioAssay AID2060896 (Molecular Pharmacology Branch, DTP, NCI, 2025).

System: 941728-121-R-J1-PDC complex spheroid viability
Assay: Anticancer human tumor 941728-121-R-J1-PDC patient-derived lung adenocarcinoma cell line growth inhibition [RAS]
Settings: for IC50: curve of first compound; for viability, T/C: stronger effect = lower value
How it was run: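 Agents were tested in combination matrices in half-log decrements from a top concentration at or near clinical Cmax (10 microM if undetermined). Targets were multi-cell spheroids of tumour lines plus HUVEC and MSC stromal cells.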

[1] = second compound 0.00316 µM, first compound 0.0316 µM
[2] = second compound 0.00316 µM, first compound 0.1 µM
[3] = second compound 0.00316 µM, first compound 0.316 µM
[4] = second compound 0.00316 µM, first compound 1 µM
[5] = second compound 0.00316 µM, first compound 3.16 µM
[6] = second compound 0.00316 µM, first compound 10 µM
[7] = second compound 0.01 µM, first compound 0.0316 µM
[8] = second compound 0.01 µM, first compound 0.1 µM
[9] = second compound 0.01 µM, first compound 0.316 µM
[10] = second compound 0.01 µM, first compound 1 µM
[11] = second compound 0.01 µM, first compound 3.16 µM
[12] = second compound 0.01 µM, first compound 10 µM
[13] = second compound 0.0316 µM, first compound 0.0316 µM
[14] = second compound 0.0316 µM, first compound 0.1 µM
[15] = second compound 0.0316 µM, first compound 0.316 µM
[16] = second compound 0.0316 µM, first compound 1 µM
[17] = second compound 0.0316 µM, first compound 3.16 µM
[18] = second compound 0.0316 µM, first compound 10 µM
[19] = second compound 0.1 µM, first compound 0.0316 µM
[20] = second compound 0.1 µM, first compound 0.1 µM
[21] = second compound 0.1 µM, first compound 0.316 µM
[22] = second compound 0.1 µM, first compound 1 µM
[23] = second compound 0.1 µM, first compound 3.16 µM
[24] = second compound 0.1 µM, first compound 10 µM
[25] = second compound 0.316 µM, first compound 0.0316 µM
[26] = second compound 0.316 µM, first compound 0.1 µM
[27] = second compound 0.316 µM, first compound 0.316 µM
[28] = second compound 0.316 µM, first compound 1 µM
[29] = second compound 0.316 µM, first compound 3.16 µM
[30] = second compound 0.316 µM, first compound 10 µM
[31] = second compound 1 µM, first compound 0.0316 µM
[32] = second compound 1 µM, first compound 0.1 µM
[33] = second compound 1 µM, first compound 0.316 µM
[34] = second compound 1 µM, first compound 1 µM
[35] = second compound 1 µM, first compound 3.16 µM
[36] = second compound 1 µM, first compound 10 µM
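Also: spheroids exposed to compounds for 7 days before readout.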
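For viability, T/C in this document: 100% = DMSO vehicle control viability.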

**Q.** What does the source list for `CC(Nc1ccc2c(c1)OCCn1cc(N3C(=O)OCC3C(F)F)nc1-2)C(N)=O` (stereo unspecified) + C=CC(=O)N1CCN(c2nc(OCC3CCCN3C)nc3c(F)c(-c4nc(N)cc(C)c4C(F)(F)F)c(Cl)cc23)C(C)C1?
**A.** IC50 (second compound 0.00316 µM): < 31.6 nM; IC50 (second compound 0.01 µM): < 31.6 nM; IC50 (second compound 0.0316 µM): < 31.6 nM; IC50 (second compound 0.1 µM): < 31.6 nM; IC50 (second compound 0.316 µM): < 31.6 nM; IC50 (second compound 1 µM): < 31.6 nM; viability, T/C [1]: 16.6%; viability, T/C [2]: 15.2%; viability, T/C [3]: 15.4%; viability, T/C [4]: 15.4%; viability, T/C [5]: 12.8%; viability, T/C [6]: 12%; viability, T/C [7]: 17.7%; viability, T/C [8]: 14.9%; viability, T/C [9]: 15.2%; viability, T/C [10]: 12.9%; viability, T/C [11]: 12.2%; viability, T/C [12]: 10.5%; viability, T/C [13]: 19.2%; viability, T/C [14]: 14.6%; viability, T/C [15]: 13.4%; viability, T/C [16]: 12.9%; viability, T/C [17]: 10.7%; viability, T/C [18]: 10.8%; viability, T/C [19]: 18.3%; viability, T/C [20]: 15.3%; viability, T/C [21]: 12.8%; viability, T/C [22]: 13.8%; viability, T/C [23]: 11.5%; viability, T/C [24]: 10.8%; viability, T/C [25]: 17.5%; viability, T/C [26]: 15.3%; viability, T/C [27]: 13.4%; viability, T/C [28]: 15.1%; viability, T/C [29]: 13.6%; viability, T/C [30]: 11.6%; viability, T/C [31]: 14.9%; viability, T/C [32]: 15.7%; viability, T/C [33]: 14.3%; viability, T/C [34]: 13.4%; viability, T/C [35]: 12.6%; viability, T/C [36]: 11.8%

**Q.** With `C[C@@H](NC(=O)c1ncnc(N)c1Cl)c1ncc(C(=O)Nc2cc(C(F)(F)F)c(Cl)cn2)s1` + C=CC(=O)N1CCN(c2nc(OCC3CCCN3C)nc3c(F)c(-c4nc(N)cc(C)c4C(F)(F)F)c(Cl)cc23)C(C)C1 as the compound, how does the IC50 (second compound 0.00316 µM) read?
**A.** < 31.6 nM

**Q.** What about the IC50 (second compound 0.01 µM) of the same compound?
**A.** < 31.6 nM

**Q.** What about the IC50 (second compound 0.0316 µM) of the same compound?
**A.** < 31.6 nM

**Q.** And the IC50 (second compound 0.1 µM)?
**A.** < 31.6 nM

**Q.** And the IC50 (second compound 0.316 µM)?
**A.** < 31.6 nM

**Q.** What about the IC50 (second compound 1 µM) of the same compound?
**A.** < 31.6 nM

**Q.** What about the viability, T/C [1] of the same compound?
**A.** 21.6%

**Q.** And the viability, T/C [2]?
**A.** 21%

**Q.** What about the viability, T/C [3] of the same compound?
**A.** 21.2%

**Q.** And the viability, T/C [4]?
**A.** 25.4%

**Q.** And the viability, T/C [5]?
**A.** 23.1%

**Q.** And the viability, T/C [6]?
**A.** 20.7%

**Q.** What about the viability, T/C [7] of the same compound?
**A.** 26.2%

**Q.** What about the viability, T/C [8] of the same compound?
**A.** 23.9%

**Q.** What about the viability, T/C [9] of the same compound?
**A.** 23.3%

**Q.** And the viability, T/C [10]?
**A.** 27.1%

**Q.** What about the viability, T/C [11] of the same compound?
**A.** 20.5%

**Q.** And the viability, T/C [12]?
**A.** 20.2%

**Q.** And the viability, T/C [13]?
**A.** 22.3%

**Q.** What about the viability, T/C [14] of the same compound?
**A.** 22%

**Q.** What about the viability, T/C [15] of the same compound?
**A.** 20.9%

**Q.** What about the viability, T/C [16] of the same compound?
**A.** 22%

**Q.** What about the viability, T/C [17] of the same compound?
**A.** 23.5%

**Q.** What about the viability, T/C [18] of the same compound?
**A.** 20.4%

**Q.** What about the viability, T/C [19] of the same compound?
**A.** 26.8%

**Q.** And the viability, T/C [20]?
**A.** 24.9%

**Q.** What about the viability, T/C [21] of the same compound?
**A.** 22.5%

**Q.** And the viability, T/C [22]?
**A.** 23.1%

**Q.** What about the viability, T/C [23] of the same compound?
**A.** 21.9%

**Q.** What about the viability, T/C [24] of the same compound?
**A.** 20.9%

**Q.** And the viability, T/C [25]?
**A.** 20.1%

**Q.** What about the viability, T/C [26] of the same compound?
**A.** 20.9%

**Q.** And the viability, T/C [27]?
**A.** 21%

**Q.** What about the viability, T/C [28] of the same compound?
**A.** 21.6%

**Q.** What about the viability, T/C [29] of the same compound?
**A.** 24.9%

**Q.** And the viability, T/C [30]?
**A.** 22.2%

**Q.** And the viability, T/C [31]?
**A.** 23.4%

**Q.** And the viability, T/C [32]?
**A.** 30.2%

**Q.** And the viability, T/C [33]?
**A.** 22.1%

**Q.** And the viability, T/C [34]?
**A.** 22.5%

**Q.** What about the viability, T/C [35] of the same compound?
**A.** 27.3%

**Q.** What about the viability, T/C [36] of the same compound?
**A.** 22.4%

**Q.** How did the IC50 (second compound 0.00316 µM) turn out when `O=C(c1ccc(F)c(F)c1Nc1ccc(I)cc1F)N1CC(O)([C@@H]2CCCCN2)C1` + C=CC(=O)N1CCN(c2nc(OCC3CCCN3C)nc3c(F)c(-c4nc(N)cc(C)c4C(F)(F)F)c(Cl)cc23)C(C)C1 was run?
**A.** < 3.16 nM

**Q.** And the IC50 (second compound 0.01 µM)?
**A.** < 3.16 nM

**Q.** What about the IC50 (second compound 0.0316 µM) of the same compound?
**A.** < 3.16 nM

**Q.** What about the IC50 (second compound 0.1 µM) of the same compound?
**A.** < 3.16 nM

**Q.** What about the IC50 (second compound 0.316 µM) of the same compound?
**A.** < 3.16 nM

**Q.** And the IC50 (second compound 1 µM)?
**A.** < 3.16 nM

**Q.** And the viability, T/C (second compound 0.00316 µM, first compound 0.00316 µM)?
**A.** 20.4%

**Q.** What about the viability, T/C (second compound 0.00316 µM, first compound 0.01 µM) of the same compound?
**A.** 19.1%

**Q.** What about the viability, T/C [1] of the same compound?
**A.** 15.5%

**Q.** And the viability, T/C [2]?
**A.** 14.5%

**Q.** What about the viability, T/C [3] of the same compound?
**A.** 12.7%

**Q.** And the viability, T/C [4]?
**A.** 11.8%

**Q.** What about the viability, T/C (second compound 0.01 µM, first compound 0.00316 µM) of the same compound?
**A.** 18.9%

**Q.** What about the viability, T/C (second compound 0.01 µM, first compound 0.01 µM) of the same compound?
**A.** 14.6%

**Q.** And the viability, T/C [7]?
**A.** 16.7%

**Q.** What about the viability, T/C [8] of the same compound?
**A.** 12.9%

**Q.** What about the viability, T/C [9] of the same compound?
**A.** 12.5%

**Q.** What about the viability, T/C [10] of the same compound?
**A.** 11.6%

**Q.** And the viability, T/C (second compound 0.0316 µM, first compound 0.00316 µM)?
**A.** 16.1%

**Q.** What about the viability, T/C (second compound 0.0316 µM, first compound 0.01 µM) of the same compound?
**A.** 13.8%

**Q.** And the viability, T/C [13]?
**A.** 13.3%

**Q.** What about the viability, T/C [14] of the same compound?
**A.** 13.9%

**Q.** What about the viability, T/C [15] of the same compound?
**A.** 13%

**Q.** What about the viability, T/C [16] of the same compound?
**A.** 12.1%

**Q.** And the viability, T/C (second compound 0.1 µM, first compound 0.00316 µM)?
**A.** 22%

**Q.** What about the viability, T/C (second compound 0.1 µM, first compound 0.01 µM) of the same compound?
**A.** 13.5%

**Q.** What about the viability, T/C [19] of the same compound?
**A.** 14.5%

**Q.** And the viability, T/C [20]?
**A.** 13.8%

**Q.** What about the viability, T/C [21] of the same compound?
**A.** 12.8%

**Q.** And the viability, T/C [22]?
**A.** 10.9%

**Q.** What about the viability, T/C (second compound 0.316 µM, first compound 0.00316 µM) of the same compound?
**A.** 15%

**Q.** And the viability, T/C (second compound 0.316 µM, first compound 0.01 µM)?
**A.** 13.7%

**Q.** What about the viability, T/C [25] of the same compound?
**A.** 13.9%

**Q.** What about the viability, T/C [26] of the same compound?
**A.** 13.1%

**Q.** And the viability, T/C [27]?
**A.** 12.4%

**Q.** What about the viability, T/C [28] of the same compound?
**A.** 13.5%

**Q.** What about the viability, T/C (second compound 1 µM, first compound 0.00316 µM) of the same compound?
**A.** 16.4%

**Q.** And the viability, T/C (second compound 1 µM, first compound 0.01 µM)?
**A.** 17%

**Q.** And the viability, T/C [31]?
**A.** 15.3%

**Q.** And the viability, T/C [32]?
**A.** 13.2%

**Q.** And the viability, T/C [33]?
**A.** 13.2%

**Q.** And the viability, T/C [34]?
**A.** 11.1%
